The text below walks through data of ChEMBL document CHEMBL3112526, “20S proteasome as novel biological target for organochalcogenanes” (Eur J Med Chem, 2014).

pIC50: −log10 of the molar value. Active and inactive are the calls of the source. No cut-off for these calls is given here. Some results are limits rather than exact numbers.

For data set [1], the species on record is Equus caballus. Nature of the data set: Inhibition of horse erythrocytes caspase like activity of beta1-20S proteasome using z-LLE-AMC as substrate at 100 uM measured for 60 mins by fluorescence assay.
For data set [2], the species on record is Equus caballus. The experiment in a line: Inhibition of horse erythrocytes trypsin like activity of beta2-20S proteasome using z-ARR-AMC as substrate at 100 uM measured for 60 mins by fluorescence assay.
A further data set has as its system Saccharomyces cerevisiae. Nature of the data set: Inhibition of yeast 20S proteasome.
The species named for data set [3] is Equus caballus. The experiment in a line: Inhibition of horse erythrocytes chymotrypsin like activity of beta5-20S proteasome using suc-LLVY-AMC as substrate at 100 uM measured for 60 mins by fluorescence assay.
Data set [4] concerns NIH3T3. Nature of the data set: Cytotoxicity against mouse NIH/3T3 cells assessed as cell viability at 10 to 100 umol/L after 2 hrs by MTT assay. To be noted: nih3t3, 2 h. It is filed as cell-based.
In data set [5] the target is Proteasome subunit beta type-2 (Mus musculus) (UniProt Q9R1P3). The experiment in a line: Inhibition of trypsin like activity of beta2-20S proteasome in mouse NIH-3T3 cells at 2 times IC50. The data set is classed as cell-based. Conditions: NIH3T3.
Data set [6] is described as follows: Inhibition of horse erythrocytes trypsin like activity of beta2-20S proteasome using z-ARR-AMC as substrate measured for 60 mins by fluorescence assay. On the set-up: species or system Equus caballus.
Data set [7] in a line: Cytotoxicity against mouse NIH/3T3 cells assessed as cell viability at 0.5 to 10 umol/L after 2 hrs by MTT assay. Conditions: read-out: Activity. The data set is classed as cell-based, NIH3T3.
Data set [8] can be described thus: Chemical stability of the compound under aqueous condition. It is filed as physicochemical. To be noted: buffer.
The nature of data set [9]: Cytotoxicity against mouse NIH/3T3 cells assessed as cell viability at 10 umol/L after 2 hrs by MTT assay. It is filed as cell-based, NIH3T3. Conditions: read-out: Activity.
Data set [10] can be described thus: Chemical stability of the compound under aqueous condition assessed as drug transformation. To be noted: buffer. The data set is classed as physicochemical.
The nature of data set [11]: Cytotoxicity against mouse NIH/3T3 cells assessed as cell viability at 40 umol/L after 2 hrs by MTT assay. It is filed as cell-based, NIH3T3. To be noted: read-out: Activity.
Data set [12] has as its system NIH3T3. The experiment in a line: Cytotoxicity against mouse NIH/3T3 cells assessed as cell viability after 2 hrs by MTT assay. To be noted: nih3t3, 2 h. It is filed as cell-based.
The subject of data set [13] is NIH3T3. The experiment in a line: (§1) Cytotoxicity against mouse NIH/3T3 cells assessed as cell viability at 80 umol/L after 2 hrs by MTT assay. Conditions: nih3t3, 2 h, 80 µM. The data set is classed as cell-based.
A short description of data set [14]: Cytotoxicity against mouse NIH/3T3 cells assessed as cell viability at 20 umol/L after 2 hrs by MTT assay. The data set is classed as cell-based, NIH3T3. Conditions: read-out: Activity.
Data set [15] in a line: Cytotoxicity against mouse NIH/3T3 cells assessed as cell viability at 1 to 40 umol/L after 2 hrs by MTT assay. The data set is classed as cell-based, NIH3T3. To be noted: read-out: Activity.
Data set [16] can be described thus: as §1. It is filed as cell-based, NIH3T3. To be noted: NIH/3T3 cells, read-out: Activity.

Proteasome subunit beta type-2 (Mus musculus), sequence (Q9R1P3 whole entry): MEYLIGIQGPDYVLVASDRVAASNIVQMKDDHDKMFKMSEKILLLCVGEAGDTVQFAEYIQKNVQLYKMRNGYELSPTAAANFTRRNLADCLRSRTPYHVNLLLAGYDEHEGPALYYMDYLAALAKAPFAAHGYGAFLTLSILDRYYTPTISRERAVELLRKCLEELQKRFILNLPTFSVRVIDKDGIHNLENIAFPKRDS

For `CCCC[Te](Cl)(Cl)c1ccccc1COC`, the inhibition entry (in the data set filed under Equus caballus [1]; with Saccharomyces cerevisiae; in the data set listed under Equus caballus [3]; in [5]) was “inactive” each time. This compound also yielded an inhibition in the data set filed under Equus caballus [2] of 90%. The Activity entry in the data set with NIH3T3 [4] is “Non-toxic”. Besides, in data set [6], the pIC50 is 5.46. For the same compound, in [7], the viability at 2 h is 60%. Also, in [8], the Stability entry is given as “Stable”.
In the case of `CCCC[Te]c1ccccc1COC`, in the data set listed under Equus caballus [2], the inhibition entry was “inactive”.
For `CCCC[Se]1(Br)c2ccccc2[C@@H](C)[O+]1C` (stereo partly drawn), the inhibition result in the data set filed under Equus caballus [1], in the data set on Saccharomyces cerevisiae and in the data set listed under Equus caballus [3] was “inactive” each time. The same compound yielded an inhibition in the data set listed under Equus caballus [2] above 50%. The compound further had a pIC50 in data set [6] of 4.59.
Regarding `CCCC[Te]c1ccccc1[C@@H](C)OC`, the inhibition result in the data set filed under Equus caballus [2] is “inactive”.
On the same count and under the same terms, the value for `CCCC[Se]c1ccccc1[C@@H](C)OC` was “inactive”.
For the compound `CCCC[Se]1(Br)c2ccccc2[C@H](C)[O+]1C` (stereo partly drawn), the inhibition entry in the data set listed under Equus caballus [1], in the data set with Saccharomyces cerevisiae and in the data set listed under Equus caballus [3] was “inactive” in each case. In the data set listed under Equus caballus [2], this compound registered an inhibition above 50%. Also, the pIC50 in data set [6] is 4.72.
`CCCC[Se]1(Cl)c2ccccc2C[O+]1C.[Cl-]` (stereo not drawn): the inhibition result in the data set listed under Equus caballus [1], with Saccharomyces cerevisiae and in the data set filed under Equus caballus [3] was “inactive” throughout. In addition, the inhibition in the data set filed under Equus caballus [2] was 90%. In addition, the viability at 2 h, 10 µM in data set [9] came out at 50%. Besides, the Stability result in data set [10] was “Unstable”. For the same compound, the viability at 2 h, 40 µM in data set [11] was 40%. Besides, the inhibition entry in data set [5] was “Active”. Besides, the Activity result in the data set with NIH3T3 [12] is recorded as “Dose-dependent effect”; in the data set with NIH3T3 [13] it was “Non-toxic”. This compound showed a pIC50 in data set [6] of 4.46.
For the compound `CCCC[Te]c1ccccc1[C@H](C)OC`, the inhibition entry in the data set filed under Equus caballus [2] was “inactive”.
Same read-out and setting: the value for `CCCC[Se]c1ccccc1[C@H](C)OC` was “inactive”.
On to `CCCC[Te](Br)(Br)c1ccccc1[C@@H](C)OC`, for which the inhibition entry in the data set filed under Equus caballus [1], in the data set with Saccharomyces cerevisiae and in the data set listed under Equus caballus [3] was “inactive” in each case. The inhibition in the data set listed under Equus caballus [2] came to 90%. Besides, the negative logarithm of the IC50 (pIC50) in [6] was 5.10.
With `CCCC[Te](Br)(Br)c1ccccc1[C@H](C)OC`, the inhibition result in the data set listed under Equus caballus [1], in the data set on Saccharomyces cerevisiae and in the data set listed under Equus caballus [3] was “inactive” each time. Besides, the inhibition in the data set filed under Equus caballus [2] was above 50%. In [6], the pIC50 is 4.82.
As for `CCCC[Se]1(Br)c2ccccc2C[O+]1C.[Br-]` (stereo not drawn), the inhibition entry in the data set filed under Equus caballus [1], in the data set on Saccharomyces cerevisiae and in the data set listed under Equus caballus [3] was “inactive” throughout. Also, in data set [14], the viability at 2 h, 20 µM worked out at 75%. Besides, the inhibition in the data set filed under Equus caballus [2] stood at 90%. Besides, the Stability result in data set [10] is “Unstable”. In [5], the inhibition result is “Active”. In [6], this compound showed a pIC50 of 4.80.
Consider `CCCC[Se]1(Cl)c2ccccc2[C@H](C)[O+]1C` (stereo partly drawn), for which the inhibition result in the data set filed under Equus caballus [1], in the data set with Saccharomyces cerevisiae and in the data set filed under Equus caballus [3] was “inactive” in each case. This compound registered an inhibition in the data set filed under Equus caballus [2] above 50%. Also, the pIC50 in [6] was 4.49.
On to `CCCC[Te](Cl)(Cl)c1ccccc1[C@H](C)OC`, for which the inhibition result in the data set filed under Equus caballus [1], in the data set with Saccharomyces cerevisiae and in the data set listed under Equus caballus [3] was “inactive” throughout. Also, in the data set filed under Equus caballus [2], the inhibition is above 50%. The compound further had a pIC50 in data set [6] of 5.26.
In the case of `CCCC[Se]1(Cl)c2ccccc2[C@@H](C)[O+]1C` (stereo partly drawn), the inhibition result in the data set listed under Equus caballus [1], in the data set on Saccharomyces cerevisiae and in the data set filed under Equus caballus [3] was “inactive” each time. The inhibition in the data set listed under Equus caballus [2] is above 50%. Besides, the pIC50 in [6] is 4.47.
On to `CCCC[Te](Br)(Br)c1ccccc1COC`, for which the inhibition entry (in the data set listed under Equus caballus [1]; with Saccharomyces cerevisiae; in the data set listed under Equus caballus [3]; in data set [5]) was “inactive” in each case. Further, in the data set filed under Equus caballus [2], the inhibition turned out to be 90%. The pIC50 in data set [6] is 5.40. Besides, the viability at 2 h in data set [15] is 60%. In [16], the viability at 2 h, 80 µM was above 50%. In addition, in [8], the Stability entry was “Stable”.
For `CCCC[Te](Cl)(Cl)c1ccccc1[C@@H](C)OC`, the inhibition result in the data set listed under Equus caballus [1], in the data set on Saccharomyces cerevisiae and in the data set listed under Equus caballus [3] was “inactive” each time. The compound also displayed an inhibition in the data set listed under Equus caballus [2] above 50%. This compound also gave a pIC50 in data set [6] of 5.40.
For the compound `CCCC[Se]c1ccccc1COC`, the inhibition entry in the data set filed under Equus caballus [2] was “inactive”.
